One test has as its target T1, FBP21-WW1 (Homo sapiens, UniProt O75554).
T1 construct: with regard to FBP21’s WW domains by ITC; GST (N); made in house; host or cells: E. coli BL21 DE3 (pGEX4T1)
T1 sequence (O75554 122-155 limits assumed): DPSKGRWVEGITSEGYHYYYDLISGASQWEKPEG
Put plainly: Isothermal titration calorimetry (ITC) with FBP21-WW1. The following applies: PBS pH 7.4, 25 °C, protein in cell 250 µM, peptide in syringe 5 mM, GST-tagged FBP21-WW1. It is filed as binding. On the procedure: In order to determine an optimal peptide sequence for a FBP21-tWW ligand, we conducted a phage display experiment for each of the two WW domains. Phages used in these experiments carried a randomized X9-peptide fused to phage coat protein VIII [16]. Enrichment factors were calculated after each selection cycle, and reached a plateau after four panning rounds. Phagemids were isolated and sequenced after the third and fourth panning rounds. The sequences for WW1 and WW2 were overlapping to a large extent, showing their similarity in binding preference. This is expected from evolutionary and binding studies carried out earlier. In agreement with previous findings for this group of WW domains a polyproline stretch and an arginine residue are present in most sequenced clones. […] To define an optimized single monovalent binder, we analyzed the affinities for a selected set of ligands from this panel of sequences with regard to FBP21’s WW domains by ITC under the same conditions as were used for the phage display. […] To further analyze which residues are essential for the interaction, we performed substitution analyses using peptide SPOT arrays (Figure 1D, Supporting Information File 1 Figure S1). The experiment gives some insight into binding specificities. The central role of proline P5 for binding of peptides is evident for both WW domains (Figure 1D, Supporting Information File 1 Figure S1). Proline fulfills two requirements. On the one hand it promotes formation of the PPII helix conformation, on the other hand, it is accommodated well into the hydrophobic groove provided by the individual WW domains. At position P4 proline can be replaced by leucine, a residue well compatible with the PPII helical conformation. Arginine is preferred at position 6 or 9, highlighting the importance of a positive charge in complex formation. […] Possibly, the hybrid resonance of the guanidinium group in the arginine is more important in the case of WW2 compared to WW1. […]
(§1) Isothermal titration calorimetry
(§2) The His6-FBP21-tWW, FBP21-WW1 and FBP21-WW2 were dialyzed against PBS, pH 7.4.
(§3) Peptides were dissolved in PBS and the pH was adjusted to 7.4. hPG-peptide conjugate 2 was dialyzed against Millipore water and the buffer components were adjusted to PBS pH 7.4. The concentration was analyzed for all components by measuring absorbance at 280 nm using a Nanodrop2000 (Thermo Scientific). Extinction coefficients were Ɛ = 5500 M−1cm−1 for WPPPPRVPR and Ɛ = 32430 M−1cm−1 for FBP21-tWW. Accounting for the number of peptides on the scaffold, we calculated an extinction coefficient of Ɛ = 38500 M−1cm−1 for the hPG-peptide conjugate 2. ITC experiments were carried out on a Microcal ITC200 (GE Healthcare).
The parameters were set to: temperature 25 °C, spacing: 120 s (for WW1 and WW2 measurements) or 180 s (for tWW measurements), stirring speed: 1000 rpm, feedback gain: high, Filter: 5 s, DP: 7 µcal/s. In ITC measurements with FBP21 WW1 and WW2, the protein in the cell was concentrated to 250 µM, the peptide in the syringe to 5 mM, injected was 1 × 1 µL, then 15 × 2.5 µL. In ITC measurements with FBP21-tWW and peptide the protein concentration in the cell was 200 µM and the peptide concentration in the syringe 4 mM. […] The data was analyzed with Origin and the Microcal ITC 200 AddOn. […]
FBP21-WW1 and FBP21-WW2 were expressed as a GST-tagged variant from pgex4T1 in E. coli BL21 DE3, FBP21-tWW was expressed from a pET28a-His6-FBP21-tWW plasmid in […]
(In general: ITC needs no label: the signal is the heat of the interaction.)

The next test addresses T2, FBP21-WW2 (Homo sapiens, UniProt O75554).
T2 construct: with regard to FBP21’s WW domains by ITC; GST (N); made in house; host or cells: E. coli BL21 DE3 (pGEX4T1)
T2 sequence (O75554 163-196 limits assumed): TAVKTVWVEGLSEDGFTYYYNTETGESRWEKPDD
Put plainly: Isothermal titration calorimetry (ITC) with FBP21-WW2. The class given is binding. The following applies: PBS pH 7.4, 25 °C, protein in cell 250 µM, peptide in syringe 5 mM, GST-tagged FBP21-WW2. The procedure:
as §1, §2, §3
The parameters were set to: temperature 25 °C, spacing: 120 s (for WW1 and WW2 measurements) or 180 s (for tWW measurements), stirring speed: 1000 rpm, feedback gain: high, Filter: 5 s, DP: 7 µcal/s. In ITC measurements with FBP21 WW1 and WW2, the protein in the cell was concentrated to 250 µM, the peptide in the syringe to 5 mM, injected was 1 × 1 µL, then 15 × 2.5 µL. In ITC measurements with FBP21-tWW and peptide the protein concentration in the cell was 200 µM and the peptide concentration in the syringe 4 mM. In ITC measurements with FBP21-tWW and the hPG-peptide conjugate 2, the concentration of 2 in the cell was 90 µM and FBP21-tWW in the syringe 1.4 mM. Injected was 1 × 1 µL, then 19 × 2 µL. The data was analyzed with Origin and the Microcal ITC 200 AddOn. To obtain the stoichiometry (N) and the […]
particles and grown overnight at 30 °C, 250 rpm. The bacteria were pelleted; Phages were precipitated from the supernatant using 20% PEG, 2.5 M NaCl. The precipitated phages were pelleted and washed before resuspension in PBS/30% glycerol.
Protein expression and purification
FBP21-WW1 and FBP21-WW2 were expressed as a GST-tagged variant from pgex4T1 in E. coli BL21 DE3, FBP21-tWW was expressed from a pET28a-His6-FBP21-tWW plasmid in E. coli BL21 DE3 as described previously. Proteins were purified by the corresponding affinity matrices and applied to a HiLoad S75 Superdex 16/60 column in 1 × PBS, pH 7.4.
Proteins were concentrated by Centrifugal Filter Units (regenerated cellulose, 3000 MWCO, […]
SPOT analyses were performed as described. Membranes were blocked with 5% BSA in PBS, washed and incubated with GST, GST-WW1 or GST-WW2 at a concentration of 7.5 µg/mL (GST) or 10 µg/mL (GST-WW1, GST-WW2) respectively overnight at 4 °C. After washing, the spot arrays were incubated with a primary anti-GST antibody (Santa Cruz, GST-Z5, sc-459, 1:1000) for one hour at room temperature in blocking buffer, washed again and incubated for one hour with a secondary anti-rabbit antibody (goat anti-rabbit, Santa Cruz, sc-2004, 1:10000) at room temperature in blocking buffer. The peptide spot arrays were developed with HRP juice purchased from pjk GmbH on an Intas Advanced Fluorescence and ECL imager.
Synthesis of hPG-peptide conjugate 2
The peptide carboxylic acid, i.e., Ac-WPPPPRVPRGSG-COOH (0.0067 mmol, 9 mg), was dissolved in 2 mL dry DMF and cooled down to 0 °C using an ice bath under argon atmosphere.
To the cooled solution, N-hydroxysuccinimide (0.013 mmol, 1.54 mg) and DCC (0.013 mmol, 2.76 mg) were added. The ice bath was removed and the reaction mixture was allowed to stir at room temperature overnight. […]

The target in a further test is T3, FBP21-tWW (Homo sapiens, UniProt O75554).
T3 construct: made in house; host or cells: E. coli BL21 DE3 (pET28a)
T3 sequence (O75554 122-196 limits assumed): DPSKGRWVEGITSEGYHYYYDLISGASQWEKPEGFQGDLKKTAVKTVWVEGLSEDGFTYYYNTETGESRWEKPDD
Kind of test: Isothermal titration calorimetry (ITC) with FBP21-tWW. The class given is binding. To be noted: PBS pH 7.4, 25 °C. The procedure:
ITC measurements were performed to analyze the dissociation constant KD of the interaction between FBP21-tWW and hPG-peptide conjugate 2 in PBS, pH 7.4 (Figure 2A). To compare the KD values we also analyzed the binding between FBP21-tWW and the monovalent peptide ligand Ac-WPPPPRVPRGSG-COOH (Figure 2B). […] However, when considering that ≈7 peptides are bound per nanoparticle, the actual multivalency effect is small.
Gel permeation chromatography (GPC)
Molecular weight distribution of hPG-OH core was determined by means of GPC coupled to a refractive index detector (RI) obtaining the complete distribution (Mn, Mp, Mw, dispersity).
Measurements were carried out under highly diluted conditions (5 mg/mL) from a GPC consisting of an Agilent 1100 solvent delivery system with pump, manual injector, and an Agilent differential refractometer. Three 30 cm columns (PPS: Polymer Standards Service GmbH, Germany; Suprema 100 Å, 1000 Å, 3000 Å with 5 and 10 μm particle size) were used to separate aqueous polymer samples using water with 0.1 M NaNO3 as the mobile phase at a flow rate of 1 mL/min. The columns were operated at room temperature with the RI detector at 50 °C. […]
Peptides were dissolved in PBS and the pH was adjusted to 7.4. hPG-peptide conjugate 2 was dialyzed against Millipore water and the buffer components were adjusted to PBS pH 7.4. The concentration was analyzed for all components by measuring absorbance at 280 nm using a Nanodrop2000 (Thermo Scientific). […] Accounting for the number of peptides on the scaffold, we calculated an extinction coefficient of Ɛ = 38500 M−1cm−1 for the hPG-peptide conjugate 2. […]
The parameters were set to: temperature 25 °C, spacing: 120 s (for WW1 and WW2 measurements) or 180 s (for tWW measurements), stirring speed: 1000 rpm, feedback gain: high, Filter: 5 s, DP: 7 µcal/s. […] The data was analyzed with Origin and the Microcal ITC 200 AddOn. […]
FBP21-WW1 and FBP21-WW2 were expressed as a GST-tagged variant from pgex4T1 in E. coli BL21 DE3, FBP21-tWW was expressed from a pET28a-His6-FBP21-tWW plasmid in E. coli BL21 DE3 as described previously. […]

In a further test the target is T4, WPPPPRVPR peptide.
T4 chain: WPPPPRVPR
Put plainly: ITC.

The target of another test is T5, Ac-WPPPPRVPRGSG-COOH.
T5 chain: Ac-WPPPPRVPRGSG-OH
Put plainly: ITC.

For a further test, the target named is T6, hPG-peptide conjugate 2 (also: multivalent conjugation to hyperbranched polyglycerol amine (about 7 peptides per polymer), site not given here).
T6 chain: Ac-WPPPPRVPRGSG
Put plainly: ITC.

Usually Kd stands for the constant that tells how readily two partners part at equilibrium.

Ends that are not written are not given here.

Take YPRPTNPRP [YPRPTNPRP]: the Kd at FBP21-WW1 was determined as 490 ± 54 µM; at FBP21-WW2, 270 ± 24 µM. For the molecule RPPCGYPLP, at FBP21-WW1, the “WW1 KD” value is “did not show any binding”. In addition, the “WW2 KD” value at FBP21-WW2 is “did not show any binding”. With RPPPPHFPQ, at FBP21-WW1, the “WW1 KD” value is listed as “could not be confirmed as a binder”. Also, the “WW2 KD” value at FBP21-WW2 is “could not be confirmed as a binder”. Regarding Ac-WPPPPRVPR [WPPPPRVPR], the Kd was determined as 155 ± 18 µM at FBP21-WW1 and 87 ± 3.4 µM at FBP21-WW2. For the molecule Ac-WPPPPRVPRGSG [Ac-WPPPPRVPRGSG-COOH], on FBP21-tWW (FBP21-tWW), the “entropy loss upon interaction” value is −19.5 cal/mol/deg and the “stoichiometric factor derived from the fit (N)” value is listed as 1.29 ± 0.0257. Moreover, the Kd on FBP21-tWW (His6-FBP21-tWW, peptide: protein in cell 200 µM, peptide in syringe 4 mM, conjugate 2: 90 µM in cell, FBP21-tWW 1.4 mM in syringe, read-out: KD of the interaction with FBP21-tWW) was 150 ± 6 µM. For YPRPPGPPP [YPRPPGPPP], the figures for the Kd on FBP21-WW1 and at FBP21-WW2 were 452 ± 45 µM and 68.5 ± 6.9 µM, respectively.

In the test with WPPPPRVPR peptide, LKKTAVKTVWVEGLSEDGFTYYYNTETGESRWEKPDDFIP [FBP21 WW2 WW2] returned a Kd of 87 µM.

B1: FBP21-tWW WW1-WW2 (protein)
chain: T3 sequence (O75554 122-196 limits assumed)
Turning to B1, the Kd in the test with Ac-WPPPPRVPRGSG-COOH came out at 150 µM; with hPG-peptide conjugate 2 it was 17.6 µM. For RKKDPSKGRWVEGITSEGYHYYYDLISGASQWEKPEGFQG [FBP21 WW1 WW1], in the test with WPPPPRVPR peptide, binding was characterised by a dissociation constant (Kd) of 155 µM.

The values above are taken from PMC4464085, “Exploring monovalent and multivalent peptides for the inhibition of FBP21-tWW” (Beilstein Journal of Organic Chemistry, 2015).
